# In PubChem BioAssay (NCI):
#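 96-well plates; 48 h exposure; 5 concentrations. Endpoints by linear interpolation between flanking doses. Not reached: highest tested concentration assigned. GI50 is the concentration that inhibits growth by half. TGI is the concentration that stops growth completely.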
# Columns and labels:
# Assay in all cases: NCI anticancer screen, dose series, 48 h
# SK-OV-3 ovarian = test system: SK-OV-3 ovarian
# LOX IMVI melanoma = test system: LOX IMVI melanoma
# RPMI-8226 leukemia = test system: RPMI-8226 leukemia
# HOP-92 NSCLC = test system: HOP-92 NSCLC
# EKVX NSCLC = test system: EKVX NSCLC
# A549 NSCLC = test system: A549 NSCLC
# SNB-19 CNS = test system: SNB-19 CNS
# HCT-15 colon = test system: HCT-15 colon
# NCI-H460 lung = test system: NCI-H460 lung
# OVCAR-3 ovarian = test system: OVCAR-3 ovarian
Compound,GI50 (SK-OV-3 ovarian) [µM],TGI (SK-OV-3 ovarian) [µM],GI50 (LOX IMVI melanoma) [µM],TGI (LOX IMVI melanoma) [µM],GI50 (RPMI-8226 leukemia) [µM],TGI (RPMI-8226 leukemia) [µM],GI50 (HOP-92 NSCLC) [µM],TGI (HOP-92 NSCLC) [µM],GI50 (EKVX NSCLC) [µM],TGI (EKVX NSCLC) [µM],GI50 (A549 NSCLC) [µM],TGI (A549 NSCLC) [µM],GI50 (SNB-19 CNS) [µM],TGI (SNB-19 CNS) [µM],GI50 (HCT-15 colon) [µM],TGI (HCT-15 colon) [µM],GI50 (NCI-H460 lung) [µM],TGI (NCI-H460 lung) [µM],GI50 (OVCAR-3 ovarian) [µM],TGI (OVCAR-3 ovarian) [µM]
O=C(/C=C/c1cccnc1)/C=C/c1cccnc1,2.74,6.78,1.13,2.42,0.0732,0.252,2.33,5.89,4.74,21.6,2.32,6.23,3.64,11.6,0.523,1.98,2.5,7.29,1.07,2.33
NC(=NCc1ccccc1)N/N=C\c1ccnc2ccccc12,–,29.7,–,28.5,–,4.14,–,7.86,–,33.1,–,36.9,–,36.9,–,37.4,–,31,–,27.2
COc1cc(-c2cn(-c3ccc(Cl)cc3)c(=O)n2-c2ccccc2)cc(OC)c1OC,74.9,> 100,46.2,> 100,> 35.4,> 100,24.1,> 88.5,> 100,> 100,> 46.6,> 100,44.7,> 100,> 100,> 100,> 80.9,> 100,> 100,> 100
CCN=C(N)CSS(=O)(=O)O,–,> 100,–,> 100,–,> 100,–,> 100,–,> 100,–,> 100,–,> 100,–,> 100,–,> 100,–,> 100
c1ccc(CNc2nc(Nc3ccc(-c4nc5ccccc5[nH]4)cc3)c3cn[nH]c3n2)cc1,3.97,17.8,1.69,3.36,2.15,5.51,1.99,5.56,3.27,23.6,2.89,8.92,4.27,31.3,1.89,7.65,2.18,5.76,1.61,3.3
C/C(=N\NC(=S)Nc1ccccc1)c1ccccn1,0.51,2.22,0.0395,2.04,0.0296,39.3,< 0.0162,0.607,0.0691,7.38,0.263,2.9,1.1,16.4,0.0338,13.2,0.0692,3.74,< 0.01,0.0538
CCOC(=O)/C(=C/c1c(-c2ccccc2)[nH]c2ccccc12)C(=O)c1ccc(Cl)cc1,4.38,> 100,3.64,> 100,2.92,> 100,1.93,15,3.73,> 100,4.61,> 100,7.96,> 100,4.06,> 100,3.03,10.3,3.35,> 100
COc1ccc(C2=NN(c3ccc(S(N)(=O)=O)cc3)C(c3ccc(Cl)cc3)C2)c(O)c1 (stereo not given),8.23,56,4.83,17,1.84,6.71,2.97,15.6,2.71,10.5,3.38,35.1,10.8,65.1,2.98,13.9,2.31,6.08,2.6,7.45
CC(=O)C(CN1CCOCC1)C(c1ccccc1)c1c(O)c2ccccc2oc1=O (stereo not given),–,> 100,–,> 100,–,96.4,–,> 100,–,> 100,–,> 100,–,> 100,–,> 100,–,> 100,–,> 100
COc1ccc(C=O)c(N(C)C(=O)C(C)(C)C)c1,–,> 100,–,> 100,–,> 100,–,> 100,–,> 100,–,> 100,–,> 100,–,> 100,–,> 100,–,> 100
CCN1C(=O)N(CC)C2C1NN=c1s/c(=C\c3ccc([N+](=O)[O-])cc3)c(=O)n12 (stereo not given),0.698,49.5,0.507,> 100,0.449,> 38.9,2.19,> 100,0.893,> 100,0.681,> 100,0.683,> 84.3,0.394,> 100,0.369,> 100,0.283,0.842
C=C1CCC2C3(C)COC(c4cccc(Cl)c4)OC3CCC2(C)C1/C=C/C1=CCOC1=O (stereo not given),> 100,> 100,2.72,> 100,2.9,> 100,> 100,> 100,2.55,> 100,3.31,> 100,> 100,> 100,6.75,> 100,5.15,> 100,7.95,> 100
CCOC(=O)C1=C(O)CSC1=Nc1ccc(N=C2SCC(O)=C2C(=O)OCC)cc1,–,65.3,–,32.1,–,> 100,–,64,–,96.7,–,93,–,> 100,–,57.7,–,92,–,> 100
Cc1ccc2c(c1)/C(=N\N=C/c1cn(C(C)C)c3ccccc13)C(=O)N2,> 100,> 100,2.55,25.2,0.396,7.31,1.73,67.2,22,> 100,5.66,> 100,7.18,> 100,2.12,> 100,0.833,13.1,0.311,31.9
